Source: patent publication US20260130933A1, “PHARMACEUTICAL COMPOSITION FOR PREVENTION OR TREATMENT OF NEPHROPATHY AND/OR DIABETES MELLITUS, COMPRISING ENAVOGLIFLOZIN” (DAEWOONG PHARMACEUTICAL CO., LTD., priority 2022, published 2026)

Test: Example 3: phase 3 trial, enavogliflozin 0.3 mg vs dapagliflozin 10 mg once a day for 24 weeks added to metformin and gemigliptin in patients with type 2 diabetes (same endpoints, rescue drug)
Type: in vivo, human
Conditions: week 18
Method: 1) when Metformin (≥1,000 mg/Day) was Administered at a Constant Dose for at Least 8 Weeks Prior to Pre-Visit (Pre-Screening) • Metformin (≥1,000 mg/day) and gemigliptin (50 mg/day) were co-administered during the 8-week stabilization period. […] 4) when Metformin (≥1,000 mg/Day) and Gemigliptin (50 mg/Day) were Co-Administered at Constant Doses for at Least 8 Weeks Prior to Pre-Visit (Prescreening) • Without a separate stabilization period, Pre-visit (pre-screening) was Visit 1 (screening).
Subjects who met the inclusion/exclusion criteria continued to receive metformin and gemigliptin while receiving a placebo of the clinical trial drug in a single-blind (subject-blinded) state for a 2-week run-in period.
Here, the randomized subjects were stratified according to the administration therapy (co-administration with two or less agents (one or two agents) or three or more agents) of a conventional hypoglycemic agent (before washout of another hypoglycemic agent) within 24 weeks prior to obtaining written informed consent and by an HbA1c value (<8% or ≥8%) at Visit 1 (screening) measured in the central laboratory.
The randomized subjects were administered two tablets of the clinical trial drug corresponding to each administration group once a day, and then visited the institution at weeks 6, 12, 18, and 24 during the 24-week administration period to conduct efficacy and safety assessments. In addition, during the clinical trial period, they were instructed to exercise regularly and control their diet without changing their daily life patterns.
• 1) Change in HbA1c at week 24 after administration of clinical trial drug compared to Visit 2 (randomization)
• 1) Change in HbA1c at each time point of weeks 6, 12, and 18 after administration of clinical trial drug compared to Visit 2 (randomization) • 2) Change in FPG at each time point of weeks 6, 12, 18, and 24 after administration of clinical trial drug compared to Visit 2 (randomization) • 3) Proportion of subjects achieving HbA1c<7% at each time point of weeks 6, 12, 18, and 24 after administration of clinical trial drug • 4) Proportion of subjects achieving HbA1c<6.5% at each time point of weeks 6, 12, 18, and 24 after administration of clinical trial drug • 5) Proportion of subjects achieving therapeutic response (HbA1c change (HbA1c at Visit 2—HbA1c at each evaluation time point)>0.5% or HbA1c<7% at each evaluation time point compared to Visit 2 (randomization)) at each time point of weeks 6, 12, 18, and 24 after administration of clinical trial drug • 6) Proportion of subjects achieving therapeutic response (HbA1c change (HbA1c at Visit 2—HbA1c at each evaluation time point)>0.7% or HbA1c<7% at each evaluation time point compared to Visit 2 (randomization)) at each time point of weeks 6, 12, 18, and 24 after administration of clinical trial drug • 7) Proportion of subjects achieving therapeutic response (HbA1c change (HbA1c at Visit 2—HbA1c at each evaluation time point)>1% or HbA1c<7% at each evaluation time point compared to Visit 2 (randomization)) at each time point of weeks 6, 12, 18, and 24 after administration of clinical trial drug

[1] = modified per-protocol set 2, enavogliflozin 0.3 mg, dapagliflozin 10 mg
[2] = per-protocol set, enavogliflozin 0.3 mg vs dapagliflozin 10 mg
[3] = per-protocol set, enavogliflozin 0.3 mg, dapagliflozin 10 mg

OC[C@H]1O[C@@H](c2cc(Cc3ccc(C4CC4)cc3)c(Cl)c3c2CCO3)[C@H](O)[C@@H](O)[C@@H]1O [Enavogliflozin, (2S,3R,4R,5S,6R)-2-(7-chloro-6 (4-cyclopropylbenzyl)-2,3-dihydrobenzofuran-4-yl)-6-(hydroxymethyl)tetrahydro-2H-pyran-3,4,5-triol]
Change from baseline in diastolic blood pressure, Median (modified per-protocol set 2): −5.00 mmHg
Diastolic blood pressure, Mean (modified per-protocol set 2): 72.53 mmHg
Diastolic blood pressure, Median (modified per-protocol set 2): 72.00 mmHg
Change from baseline in systolic blood pressure, ANCOVA LS mean difference (modified per-protocol set 2, enavogliflozin 0.3 mg vs dapagliflozin 10 mg): −1.66 mmHg
Change from baseline in systolic blood pressure, ANCOVA LS mean [1]: −6.82 mmHg
Change from baseline in systolic blood pressure, Mean [1]: −7.37 mmHg
Change from baseline in systolic blood pressure, Median [1]: −7.00 mmHg
Systolic blood pressure, Mean [1]: 119.95 mmHg
Systolic blood pressure, Median [1]: 119.00 mmHg
Adiponectin, Mean (per-protocol set): 7.03 µg/mL
Adiponectin, Median (per-protocol set): 6.26 µg/mL
Change from baseline in HOMA-IR, ANCOVA LS mean (per-protocol set): −1.14
Change from baseline in HOMA-IR, LS mean difference (enavogliflozin − dapagliflozin) (per-protocol set): −0.13
Change from baseline in HOMA-IR, Mean (per-protocol set): −1.16
Change from baseline in HOMA-IR, Median (per-protocol set): −0.82
Change from baseline in HOMA-β, ANCOVA LS mean (per-protocol set): 5.97
Change from baseline in HOMA-β, LS mean difference (enavogliflozin − dapagliflozin) (per-protocol set): 1.48
Change from baseline in HOMA-β, Mean (per-protocol set): 6.09
Change from baseline in HOMA-β, Median (per-protocol set): 4.10
Change from baseline in UACR, ANCOVA LS mean (per-protocol set): -11.08 g/kg
Change from baseline in UACR, LS mean difference (enavogliflozin − dapagliflozin) (per-protocol set): -2.18 g/kg
Change from baseline in UACR, Mean (per-protocol set): -12.07 g/kg
Change from baseline in UACR, Median (per-protocol set): -1.50 g/kg
Change from baseline in UGCR, ANCOVA LS mean (per-protocol set): 58.74 mg/mg
Change from baseline in UGCR, LS mean difference (enavogliflozin − dapagliflozin) (per-protocol set): 13.34 mg/mg
Change from baseline in UGCR, Mean (per-protocol set): 57.23 mg/mg
Change from baseline in UGCR, Median (per-protocol set): 54.56 mg/mg
Change from baseline in adiponectin, ANCOVA LS mean (per-protocol set): 0.78 µg/mL
Change from baseline in adiponectin, LS mean difference (enavogliflozin − dapagliflozin) (per-protocol set): 0.42 µg/mL
Change from baseline in adiponectin, Mean (per-protocol set): 0.80 µg/mL
Change from baseline in adiponectin, Median (per-protocol set): 0.60 µg/mL
Change from baseline in leptin, ANCOVA LS mean (per-protocol set): -1.46 ng/mL
Change from baseline in leptin, LS mean difference (enavogliflozin − dapagliflozin) (per-protocol set): -0.40 ng/mL
Change from baseline in leptin, Mean (per-protocol set): -1.63 ng/mL
Change from baseline in leptin, Median (per-protocol set): -0.89 ng/mL
HOMA-IR (insulin resistance), Mean (per-protocol set): 1.74
HOMA-IR (insulin resistance), Median (per-protocol set): 1.42
HOMA-β (beta-cell function), Mean (per-protocol set): 49.26
HOMA-β (beta-cell function), Median (per-protocol set): 40.00
Leptin, Mean (per-protocol set): 8.87 ng/mL
Leptin, Median (per-protocol set): 5.86 ng/mL
UACR, Mean (per-protocol set): 25.02 g/kg
UACR, Median (per-protocol set): 11.30 g/kg
UGCR, Mean (per-protocol set): 57.96 mg/mg
UGCR, Median (per-protocol set): 54.71 mg/mg
Achieving HbA1c target of <6.5%, odds ratio (logistic regression model) [2]: 1.20
Achieving HbA1c target of <7%, odds ratio (logistic regression model) [2]: 1.36
Change from baseline in FPG, ANCOVA LS mean difference [2]: -4.22 mg/dL
Change from baseline in HbA1c, ANCOVA LS mean difference [2]: −0.07 % p
Change from baseline in body weight, ANCOVA LS mean difference [2]: -0.15 kg
Change from baseline in fasting C-peptide, ANCOVA LS mean difference [2]: -0.02 ng/mL
Therapeutic glycemic response 1, odds ratio (logistic regression model) [2]: 1.02
Therapeutic glycemic response 2, odds ratio (logistic regression model) [2]: 1.09
Therapeutic glycemic response 3, odds ratio (logistic regression model) [2]: 1.22
Body weight, Mean [3]: 66.18 kg
Change from baseline in FPG, ANCOVA LS mean [3]: -27.77 mg/dL
Change from baseline in FPG, Mean [3]: -28.00 mg/dL
Change from baseline in FPG, Median [3]: -24.00 mg/dL
Change from baseline in HbA1c, ANCOVA LS mean [3]: −0.83 % p
Change from baseline in HbA1c, Mean [3]: −0.84 % p
Change from baseline in HbA1c, Median [3]: −0.72 % p
Change from baseline in body weight, ANCOVA LS mean [3]: -3.16 kg
Change from baseline in body weight, Mean [3]: -3.10 kg
Change from baseline in body weight, Median [3]: -2.90 kg
Change from baseline in fasting C-peptide, ANCOVA LS mean [3]: -0.08 ng/mL
Change from baseline in fasting C-peptide, Mean [3]: -0.09 ng/mL
Change from baseline in fasting C-peptide, Median [3]: -0.10 ng/mL
FPG, Mean [3]: 111.10 mg/dL
FPG, Median [3]: 109.00 mg/dL
Fasting C-peptide, Mean [3]: 0.64 ng/mL
Fasting C-peptide, Median [3]: 0.60 ng/mL
HbA1c, Mean [3]: 6.95%
